Values quoted from earlier work in patent US20080279776A1, “Photosensitizers and MRI Enhancers” (Photo Diagnostic Devices (PDD) Limited, priority 2005, published 2008).

Details: readings taken as a prototype

18-carboxy-20-(carboxymethyl)-8-ethenyl-13-ethyl-2,3-dihydro-3,7,12,17-tetramethyl-21H,23H-porphine-2-propanoic acid [Chlorine-e6]
LD10: 119 mg/kg weight
LD50: 160 mg/kg weight
